SMILES strings stand for the structures. Values joined by “and” are separate entries in the source; they are usually repeats but may differ in a detail not shown here. Identical values can stand only once.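 In this assay, cells in 96-well plates receive the compound at five concentrations for 48 hours. Endpoints are linearly interpolated between the surrounding concentrations. GI50 marks 50% less growth. TGI: total growth inhibition.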 Where only a bound is given, the exact number is not on record here.

Holding throughout (assay): NCI anticancer screen, dose series, 48 h
Test [1] concerns HCT-15 colon.
Test [2] deals with HL-60(TB) leukemia.
The test system of test [3] is HT29 colon.
Test [4] deals with K-562 leukemia.
Test [5] deals with MALME-3M melanoma.
In test [6] the test system is SF-295 CNS.
Test [7] relates to SK-MEL-28 melanoma.
For test [8], the system named is SK-MEL-5 melanoma.
Test [9] relates to SW-620 colon.
For test [10], the system named is UACC-62 melanoma.

With `O=CC[C@H]1C(=O)C[C@@H]2CCC[C@@H]21`, the TGI in [1], in [2], in test [3], in [4], in test [5] and in [6] was above 100 µM throughout. Besides, the TGI in [7], in [8], in [9] and in [10] was above 100 µM throughout.
As for `c1ccc2cc(-c3cc(-c4cc(-c5ccc6ccccc6c5)on4)no3)ccc2c1`, the TGI in test [1], in [2], in test [3], in test [4], in test [5] and in test [6] was above 100 µM each time. For the same compound, the TGI in test [7], in [8], in test [9] and in [10] was above 100 µM in each case.
`COC(CN1C(=O)c2cccc3cccc(c23)C1=O)OC`: the TGI in test [1], in test [2], in test [3], in test [4], in test [5] and in test [6] was above 100 µM throughout. Further, the TGI in [7], in test [8], in [9] and in [10] was above 100 µM throughout.
Take `O=C(Nc1ccc(Cl)c(Cl)c1)Nc1ccc(Cl)c(Cl)c1`: the GI50 in test [1] was 2.9 µM and 3.01 µM; in test [2] it was 2.58 µM and 2.16 µM; in [3], 3.27 µM and 2.43 µM; in [4] it was 3.39 µM and 1.97 µM; in [5] it was 2.22 µM and 2.44 µM; in test [6], 2.3 µM and 1.84 µM. Also, the GI50 in test [7] is 3.24 µM and 4.13 µM; in test [8], 1.74 µM and 1.77 µM; in [9] it was 3.36 µM and 3.12 µM; in test [10], 2.88 µM and 2.38 µM. Also, the TGI in test [1] was 11.9 µM and 11.2 µM; in [2], 7.24 µM and 6.68 µM; in test [3], 12.9 µM and 6.82 µM; in [4], 19.8 µM and 9.9 µM; in test [5] it was 5.95 µM and 6.58 µM; in test [6], 6.93 µM and 5.39 µM. Further, the TGI is 14.2 µM and > 100 µM in test [7]; 3.35 µM and 3.18 µM in [8]; 14.4 µM and 11.7 µM in test [9]; 13.4 µM and 10.4 µM in test [10].
As to `CO[C@H](C(=O)[C@@H](O)[C@@H](C)O)[C@@H]1Cc2cc3cc(O[C@H]4C[C@@H](O[C@H]5C[C@@H](O)[C@H](O)C(C)O5)[C@H](O)C(C)O4)c(C)c(O)c3c(O)c2C(=O)[C@H]1O[C@H]1C[C@@H](O[C@H]2C[C@@H](O[C@H]3C[C@](C)(O)C(=O)C(C)O3)[C@@H](O)C(C)O2)[C@H](O)C(C)O1` (some centres undefined), the GI50 in [1] was 0.889 µM; in [2], 0.592 µM; in test [3], 0.0852 µM; in test [4], 0.1 µM; in [5] it was 0.0388 µM; in [6], 0.0828 µM. The GI50 is 0.053 µM in [7], 0.0385 µM in test [8], 0.075 µM in [9] and 0.0187 µM in test [10]. Further, the TGI in [1] is above 33.2 µM; in test [2], above 21 µM; in [3], 0.866 µM; in test [4], above 33.2 µM; in test [5] it was 0.28 µM; in test [6], 6.12 µM. The TGI was 0.203 µM in test [7], 0.136 µM in test [8], above 33.2 µM in [9] and 0.102 µM in test [10].
Regarding `COc1ccc2c(c1)/C(=C/c1c(C)nc3sc(C)nn13)C(=O)N2`, the GI50 in [1] is 0.879 µM; in test [2], 0.663 µM; in test [3], 0.451 µM; in test [4], 0.394 µM; in test [6], 1.48 µM; in test [7] it was 5.29 µM. Besides, the results for the GI50 in [8], in [9] and in [10] were 1.5 µM, 0.695 µM and 6.24 µM, respectively. Moreover, the TGI in test [1] is above 100 µM; in [3], above 100 µM; in test [5] it was above 100 µM; in [6], 50.3 µM; in test [7], above 100 µM; in test [8], above 100 µM. Moreover, the TGI in test [9] and in test [10] was above 100 µM in each case.
As to `CCCCCCCCCCCCCCCCCC(CCCCCCCCCCCCCCCCC)OP(=O)(O)O`, the TGI in test [1], in [2], in [3], in test [4], in test [5] and in test [6] was above 100 µM each time. Besides, the TGI in [7], in test [8], in test [9] and in test [10] was above 100 µM throughout.
`COC1(OC)CCC2C1C1CCC(OC)(OC)C21` (centres undefined): the TGI in [1], in test [2], in test [3], in [4], in test [5] and in test [6] was above 50 µM in each case. Besides, the TGI in test [7], in [8], in test [9] and in test [10] was above 50 µM throughout.
Regarding `Cc1ccc2c(=O)cc(-c3ccc(F)cc3)[nH]c2n1`, the TGI in test [1] was above 100 µM; in [2] it was 34.3 µM; in [3], above 100 µM; in test [4] it was 83 µM; in test [5] it was above 100 µM; in [6] it was above 100 µM. For the same compound, the TGI in [7], in [8], in test [9] and in [10] was above 100 µM throughout. Also, the GI50 in test [6] was 36.8 µM; in test [8], 31.3 µM.
In the case of `CSc1nc2c(c(=O)[nH]1)N=C1c3ccccc3C(=O)C1C(c1ccccc1)N2` (centres undefined), the GI50 in test [1] was 2.8 µM; in test [2] it was 2.51 µM; in [3] it was 2.97 µM; in test [4], 1.27 µM; in [5] it was 2.33 µM; in [6], 1.91 µM. In addition, the GI50 in test [7] was 3.73 µM; in [8], 1.5 µM; in test [9], 2.92 µM; in test [10], 2.14 µM. Moreover, the TGI in [1], in test [2], in test [3], in test [4], in [5] and in test [6] was above 100 µM in each case. Also, the TGI in [7] is above 100 µM; in test [8], 67.2 µM; in test [9], above 100 µM; in test [10], above 100 µM.
